Test results as given in paper PMC5274652, “Antagonizing Retinoic Acid Receptors Increases Myeloid Cell Production by Cultured Human Hematopoietic Stem Cells” (Archivum Immunologiae et Therapiae Experimentalis, 2016).

Key:
[1] = biological target: T1, human RARα (Homo sapiens, UniProt P10276); experiment: Competition with [3H]-ATRA binding, nuclear extracts of Sf21 cells expressing RARα; settings: nuclear extracts of baculovirus-infected Sf21 cells, read-out: Binding affinity ED50, RARα
T1 construct: made in house
T1 sequence (P10276 1-462): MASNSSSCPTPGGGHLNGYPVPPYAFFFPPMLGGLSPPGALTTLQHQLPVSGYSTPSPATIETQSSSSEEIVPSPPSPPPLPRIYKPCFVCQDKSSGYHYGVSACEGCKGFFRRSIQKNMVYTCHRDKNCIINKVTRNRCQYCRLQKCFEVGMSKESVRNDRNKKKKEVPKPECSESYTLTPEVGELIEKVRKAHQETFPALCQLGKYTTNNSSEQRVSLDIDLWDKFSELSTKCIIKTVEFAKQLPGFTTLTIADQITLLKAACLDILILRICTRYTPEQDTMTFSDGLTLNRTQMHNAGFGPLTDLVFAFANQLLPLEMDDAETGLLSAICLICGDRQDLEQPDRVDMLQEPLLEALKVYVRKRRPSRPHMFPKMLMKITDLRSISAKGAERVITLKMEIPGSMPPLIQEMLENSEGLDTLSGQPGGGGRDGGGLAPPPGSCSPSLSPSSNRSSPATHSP

[2] = biological target: T2, human RARβ (Homo sapiens, UniProt P10826); experiment: Competition with [3H]-ATRA binding, nuclear extracts of Sf21 cells expressing RARβ; settings: nuclear extracts of baculovirus-infected Sf21 cells, read-out: Binding affinity ED50, RARβ
T2 construct: made in house
T2 sequence (P10826 1-455): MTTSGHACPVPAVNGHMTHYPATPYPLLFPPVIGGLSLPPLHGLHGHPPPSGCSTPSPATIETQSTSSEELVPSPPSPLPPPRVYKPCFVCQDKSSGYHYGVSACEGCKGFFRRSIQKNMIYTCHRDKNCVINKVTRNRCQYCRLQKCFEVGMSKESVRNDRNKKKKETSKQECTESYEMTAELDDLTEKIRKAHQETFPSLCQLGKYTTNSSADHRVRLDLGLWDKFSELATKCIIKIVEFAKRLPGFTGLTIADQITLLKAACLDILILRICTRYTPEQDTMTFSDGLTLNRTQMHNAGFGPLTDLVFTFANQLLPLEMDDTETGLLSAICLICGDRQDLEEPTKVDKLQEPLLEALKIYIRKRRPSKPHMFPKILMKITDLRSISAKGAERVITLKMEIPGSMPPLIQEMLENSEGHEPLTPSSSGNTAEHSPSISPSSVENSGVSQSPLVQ

[3] = tested on: NB-4 cells; experiment: Differentiation of NB-4 cells (CD11b/CD14 flow cytometry); format: cell-based, human; settings: 96 h
Procedure: (§1) NB-4 and KG1 cells were obtained from the German Resource Center for Biological Material (DSMZ GmbH, Braunschweig, Germany). The cells were grown in RPMI-1640 medium supplemented with 10 % fetal bovine serum (FBS), 100 U/ml penicillin, and 100 µg/ml streptomycin (Sigma, St Louis, MO, USA). Cells were grown at 37 °C in 5 % CO2.
(§2) The expression of differentiation markers at the cell surface was determined by flow cytometry. Differentiation of NB-4 and KG1 cells was measured by staining using the monoclonal antibodies CD11b-FITC and CD14-PE and appropriately labeled isotype controls (all from ImmunoTools, Friesoythe, Germany). Differentiation of human CD34^+ve cells was measured by triple-color staining using various cocktails of phycoerythrin-, fluorescein isothyocyanate-, and PerCP-monoclonal antibodies (from Becton–Dickinson, San Jose, CA, USA). The markers used to identify cell populations were as follows: CD45^+ve leukocytes; CD34^+ve/CD133^+ve HSCs; CD33^+ve/CD13^+ve immature myeloid; CD117^+ve myeloblasts and promyelocytes; CD11b^+ve/CD15^+ve mature myeloid; CD11b^+ve/CD65^+ve neutrophils; CD11b^+ve/CD14^+ve monocytes; glycophorin^+ve A erythroid cells; CD61^+ve megakaryoblasts and platelets; CD2^+ve/CD5^+ve/CD7^+ve T cells and NK cells; CD56^+ve NK cells; CD19^+ve/CD20^+ve B cells; and CD10^+ve B lymphocyte progenitors; and present on mature neutrophils and DR^+ve progenitors and present on mature monocytes. The cells were stained with 1 µl of the fluorescently labeled antibody (or the appropriate control immunoglobulin) for 1 h on ice. Next, they were washed with ice-cold phosphate-buffered saline (PBS) and suspended in 0.5 ml PBS supplemented with 0.1 % bovine serum albumin (Sigma, St Louis, MO, USA) prior to analysis on FACS Calibur flow cytometer (Becton–Dickinson, San Jose, CA, USA). The acquisition parameters were set for an isotype control. Cells were analyzed using a FACSCalibur, and data analysis was performed using the CellQuest Pro software (Becton–Dickinson, San Jose, CA, USA).

[4] = tested on: KG1 cells; experiment: Differentiation of KG1 cells (CD11b/CD14 flow cytometry); format: cell-based, human; settings: 96 h
Procedure: as §1, §2

[5] = tested on: CD34^+vehuHSCs; settings: 100 nM, 2 weeks, 2 donors
Procedure: (§3) Assays for week-five cobblestone area forming cells (CAFC), long-term culture-initiating cells (LTC-IC), and colony-forming units (CFU) were performed at the Stem Cell Laboratory at the National Blood Service Stem Cell Laboratory using standard procedures and methods, as described by other workers (de […] and Ploemacher [2001]; Denning-Kendall et al. [1996]; Nicol et al. [1996]). CFU assays were performed using Methocult^TM GF H8444 (StemCell Technologies) and in 35 mm petri dishes. The presence of CAFC was scored as the presence of 12 or more closely associated and small cells that were embedded in the MS5 cell feeder layer and blind by an experienced reader. The nature of CFUs, as to colony-forming unit-granulocyte/erythroid/megakaryocyte/monocyte (CFU-GEMM), colony-forming unit-granulocyte/macrophage (CFU-GM), burst-forming unit-erythroid (BFU-E), and colony-forming unit-erythroid (CFU-E), was scored blind at the service by a person who routinely reads colony assays and is accredited. The nature of colonies was confirmed by sampling colonies and staining cytocentrifuged preparations of cells.

[6] = tested on: CD34^+vehuHSCs; experiment: Week-five CAFC and LTC-IC assays of cultured CD34+ve huHSC; format: cell-based, human; settings: 100 nM, cells cultured 2 weeks, two donors
Procedure: as §3

[7] = tested on: mice; settings: cited from earlier work

In the case of CCc1ccc(C2=CC(C)(C)Sc3ccc(C#Cc4ccc(C(=O)O)cc4)cc32)cc1 [AGN194310], the IC50 [1] is reported as 4.3 nM, the IC50 [2] is reported as 5 nM and the “effect on differentiation of NB-4 cells” value ([3]; 100 nM with 10 nM 1,25D, compared with 1,25D alone) is reported as “did not have an appreciable effect”. The “effect on differentiation of NB-4 cells” value ([3]; 100 nM, used alone) was “no effect”, the “effect on differentiation of KG1 cells” value ([4]; 100 nM together with 10 nM 1,25D) was “no effect” and the “effect on differentiation of KG1 cells” value ([4]; 100 nM, used alone) was “no effect”. For the same compound, the “BFU-E together with CFU-E as share of the total colony-forming units” value ([5]; control 7 %) was 41%, the “CFU-GM as share of the total colony-forming units” value ([5]; control 93 %) was 56% and the “CFU-GEMM as share of the total colony-forming units” value ([5]; control not detected) was 3%. For the same compound, the “presence of week-five CAFC and LTC-IC” value [6] was “only present in pan-RAR-antagonized wells”, the “expansion of granulopoiesis in knockout mice lacking the receptor for G-CSF” value ([7]; G-CSFR knockout mice, ref Chee et al. 2013) was “not seen” and the “effect on myeloid cells after administration to mice” value ([7]; mice, ref Walkley et al. 2002, Chee et al. 2013) was “increases in myeloid progenitor cells and mature myeloid cells”.
